Laboratory results published in patent US20110245283A1, “Methods for predicting the response to statins” (priority 2009, published 2011).
Like-named read-outs stand apart in the source and are kept apart here.

Columns and labels:
LDL [1] = settings: cited from earlier work
LDL [2] = test: Logistic regression models of attaining LDL goal: odds ratios for concurrent or prior drug doses; type: in vivo, patients; settings: for OR: odds of goal
Experimental: G. Covariates for the multivariate model—The following list includes the predictors one or more of which may be tested in the multivariate models. • 1. AGE: (expressed in units of 10 years) at time that the new statin prescription was released • 2. GENDER, E. G., MALE: 1=yes, 0=no • 3. BMI (kg/M^2): last value before release date • 4. HBA1C (hemoglobin Alc): last value before release date • 5. PLDL: preceding LDL level expressed in e.g. 10 mg/dl units • 6. Statins • a. PLOVA: prior daily dose of lovastatin expressed in e.g. 10 mg units • b. […] For additional drugs: • a. AMIODOSE: amiodarone dose in mg/day • b. CARBDOSE: carbemazepine dose in mg/day • c. PIOGDOSE: pioglitazone dose expressed as number of 15 mg doses per day • d. […] METFDOSE: metformin dose expressed as number of 1000 mg doses per day • f. PHENDOSE: phenyloin dose in mg/day • g. RISPDOSE: risperidone dose in mg/day • h. ROSIDOSE: rosiglitazone dose in mg/day • i.
Body mass index (BMI) was chosen as a covariate of statin response because obese patients tend to consume a diet high in cholesterol. It was hypothesized that they would respond less well to statins because their hypercholesterolemia was more likely to be mediated by dietary indiscretion than excessive LDL synthesis. […] Metformin and the thiazolidinediones were chosen because they reduce LDL levels in diabetic patients through mechanisms that may or may not be affected by concurrent statin treatment. The remaining non-statin drugs were chosen because they are commonly used drugs that potentiate the effect of statins. They were selected by reviewing the official on-line VA pharmaceutical reference (Micromedex®) for major interactions mediated by impaired statin metabolism. […] The daily dose of the non-statin drug was calculated by the method described in Section B.
H. Assembling the predictor file—The patient identifier was used to link the new statin prescription type and dose, the preceding LDL above goal, and the type and dose of the previous statin (if any) with the patient's most recent HbA1c, most recent BMI, and the daily doses of 9 drugs with major statin interactions that were active at the time the new prescription was released.
The dependent variable was attainment of goal (LDL <100 mg/dl). […] Step selections were based upon the maximal likelihood method with α<0.15 to enter and ≧0.15 to remove.

LDL [3] = test: Proportion of CAD patients attaining LDL goal (<100 mg/dl) on a statin dose; validation sets stratified by predicted probability; settings: for Proportion of patients achieving goal: validation set; for Chance of success (reaching goal) of any dose choice: this study

CC(C)c1c(C(=O)Nc2ccccc2)c(-c2ccccc2)c(-c2ccc(F)cc2)n1CC[C@@H](O)C[C@@H](O)CC(=O)O [Atorva, atorvastatin]
Average LDL reduction (LDL [1]; Dose 10 mg): 36%
Average LDL reduction (LDL [1]; Dose 20 mg): 46%
Average LDL reduction (LDL [1]; Dose 40 mg): 51%
Average LDL reduction (LDL [1]; Dose 80 mg): 54%

CC(C)n1c(/C=C/C(O)CC(O)CC(=O)O)c(-c2ccc(F)cc2)c2ccccc21 (stereo not shown) [Fluva, fluvastatin]
Average LDL reduction (LDL [1]; Dose 20 mg): 17%
Average LDL reduction (LDL [1]; Dose 40 mg): 23%
Average LDL reduction (LDL [1]; Dose 80 mg): 33%

CC[C@H](C)C(=O)O[C@H]1C[C@H](O)C=C2C=C[C@H](C)[C@H](CC[C@@H](O)C[C@@H](O)CC(=O)O)[C@H]21 [Prava, pravastatin]
Average LDL reduction (LDL [1]; Dose 10 mg): 19%
Average LDL reduction (LDL [1]; Dose 20 mg): 24%
Average LDL reduction (LDL [1]; Dose 40 mg): 34%
Average LDL reduction (LDL [1]; Dose 80 mg): 40%

CC(C)c1nc(N(C)S(C)(=O)=O)nc(-c2ccc(F)cc2)c1/C=C/[C@@H](O)C[C@@H](O)CC(=O)O [Rosuva, rosuvastatin]
Average LDL reduction (LDL [1]; Dose 5 mg): 43%
Average LDL reduction (LDL [1]; Dose 10 mg): 50%
Average LDL reduction (LDL [1]; Dose 20 mg): 53%
Average LDL reduction (LDL [1]; Dose 40 mg): 62%

CCC(C)(C)C(=O)O[C@H]1C[C@@H](C)C=C2C=C[C@H](C)[C@H](CC[C@@H]3C[C@@H](O)CC(=O)O3)[C@H]21 [Simvastatin, simvastatin]
Reduction of odds of reaching goal (LDL [2]; for every 10 mg/day in the previous simvastatin dose, simvastatin 20 model): 70%
OR (LDL [2]; Model 1, Simvastatin 10 mg, per 10 mg/day): 0.130
OR (LDL [2]; Model 1, Simvastatin 20 mg, per 10 mg/day): 0.355
OR (LDL [2]; Model 1, Simvastatin 40 mg, per 10 mg/day): 0.771
OR (LDL [2]; Model 1, Simvastatin 80 mg, per 10 mg/day): 0.900
OR (LDL [2]; Simvastatin 10 mg [B] model (includes BMI; n = 136), per dose increment): 0.0593
OR (LDL [2]; Simvastatin 10 mg [C] model (excludes BMI; n = 219), per dose increment): 0.149
OR (LDL [2]; Simvastatin 20 mg model (n = 374), per dose increment): 0.356
OR (LDL [2]; Simvastatin 40 mg model (n = 698), per dose increment): 0.788
OR (LDL [2]; Simvastatin 80 mg model (n = 481), per dose increment): 0.887
Proportion of patients achieving goal (LDL [3]; Model 1, simvastatin 10 mg, predicted probability 0-19%): 14.3%
Proportion of patients achieving goal (LDL [3]; Model 1, simvastatin 10 mg, predicted probability 20-39%): 31.8%
Proportion of patients achieving goal (LDL [3]; Model 1, simvastatin 10 mg, predicted probability 40-59%): 57.6%
Proportion of patients achieving goal (LDL [3]; Model 1, simvastatin 10 mg, predicted probability 60-79%): 69.7%
Proportion of patients achieving goal (LDL [3]; Model 1, simvastatin 10 mg, predicted probability 80-100%): 100%
Proportion of patients achieving goal (LDL [3]; Model 1, simvastatin 20 mg, predicted probability 0-19%): 11.1%
Proportion of patients achieving goal (LDL [3]; Model 1, simvastatin 20 mg, predicted probability 20-39%): 32.9%
Proportion of patients achieving goal (LDL [3]; Model 1, simvastatin 20 mg, predicted probability 60-79%): 66.2%
Proportion of patients achieving goal (LDL [3]; Model 1, simvastatin 40 mg, Overall): 57.0%
Proportion of patients achieving goal (LDL [3]; Model 1, simvastatin 40 mg, predicted probability 0-19%): 36.4%
Proportion of patients achieving goal (LDL [3]; Model 1, simvastatin 40 mg, predicted probability 20-39%): 30.4%
Proportion of patients achieving goal (LDL [3]; Model 1, simvastatin 40 mg, predicted probability 40-59%): 54.2%
Proportion of patients achieving goal (LDL [3]; Model 1, simvastatin 40 mg, predicted probability 60-79%): 67.2%
Proportion of patients achieving goal (LDL [3]; Model 1, simvastatin 40 mg, predicted probability 80-100%): 0%
Proportion of patients achieving goal (LDL [3]; Model 1, simvastatin 80 mg, Overall): 61.9%
Proportion of patients achieving goal (LDL [3]; Model 1, simvastatin 80 mg, predicted probability 20-39%): 42.7%
Proportion of patients achieving goal (LDL [3]; Model 1, simvastatin 80 mg, predicted probability 40-59%): 42.7%
Proportion of patients achieving goal (LDL [3]; Model 1, simvastatin 80 mg, predicted probability 60-79%): 68.9%
Proportion of patients achieving goal (LDL [3]; Model 1, simvastatin 80 mg, predicted probability 80-100%): 74.3%
Proportion of patients achieving goal (LDL [3]; Simvastatin 10 mg [A] model, predicted probability 0-19%): 8.3%
Proportion of patients achieving goal (LDL [3]; Simvastatin 10 mg [A] model, predicted probability 20-39%): 29.7%
Proportion of patients achieving goal (LDL [3]; Simvastatin 10 mg [A] model, predicted probability 40-59%): 62.1%
Proportion of patients achieving goal (LDL [3]; Simvastatin 10 mg [A] model, predicted probability 60-79%): 68.6%
Proportion of patients achieving goal (LDL [3]; Simvastatin 10 mg [A] model, predicted probability 80-100%): 75.0%
Proportion of patients achieving goal (LDL [3]; Simvastatin 10 mg [B] model, Overall): 52.1%
Proportion of patients achieving goal (LDL [3]; Simvastatin 10 mg [B] model, predicted probability 0-19%): 10.0%
Proportion of patients achieving goal (LDL [3]; Simvastatin 10 mg [B] model, predicted probability 20-39%): 26.3%
Proportion of patients achieving goal (LDL [3]; Simvastatin 10 mg [B] model, predicted probability 40-59%): 58.8%
Proportion of patients achieving goal (LDL [3]; Simvastatin 10 mg [B] model, predicted probability 60-79%): 70.6%
Proportion of patients achieving goal (LDL [3]; Simvastatin 10 mg [B] model, predicted probability 80-100%): 100%
Proportion of patients achieving goal (LDL [3]; Simvastatin 10 mg [C] model, predicted probability 0-19%): 11.8%
Proportion of patients achieving goal (LDL [3]; Simvastatin 10 mg [C] model, predicted probability 20-39%): 31.8%
Proportion of patients achieving goal (LDL [3]; Simvastatin 10 mg [C] model, predicted probability 40-59%): 60.0%
Proportion of patients achieving goal (LDL [3]; Simvastatin 10 mg [C] model, predicted probability 60-79%): 74.2%
Proportion of patients achieving goal (LDL [3]; Simvastatin 10 mg [C] model, predicted probability 80-100%): 75.0%
Proportion of patients achieving goal (LDL [3]; Simvastatin 20 mg [C] model, predicted probability 0-19%): 10.5%
Proportion of patients achieving goal (LDL [3]; Simvastatin 20 mg [C] model, predicted probability 20-39%): 35.1%
Proportion of patients achieving goal (LDL [3]; Simvastatin 20 mg [C] model, predicted probability 60-79%): 65.3%
Proportion of patients achieving goal (LDL [3]; Simvastatin 40 mg model, Overall): 57.4%
Proportion of patients achieving goal (LDL [3]; Simvastatin 40 mg model, predicted probability 0-19%): 20.0%
Proportion of patients achieving goal (LDL [3]; Simvastatin 40 mg model, predicted probability 20-39%): 38.6%
Proportion of patients achieving goal (LDL [3]; Simvastatin 40 mg model, predicted probability 40-59%): 54.6%
Proportion of patients achieving goal (LDL [3]; Simvastatin 40 mg model, predicted probability 60-79%): 67.0%
Proportion of patients achieving goal (LDL [3]; Simvastatin 40 mg model, predicted probability 80-100%): 65.0%
Proportion of patients achieving goal (LDL [3]; Simvastatin 80 mg model, Overall): 61.9%
Proportion of patients achieving goal (LDL [3]; Simvastatin 80 mg model, predicted probability 20-39%): 41.7%
Proportion of patients achieving goal (LDL [3]; Simvastatin 80 mg model, predicted probability 40-59%): 41.9%
Proportion of patients achieving goal (LDL [3]; Simvastatin 80 mg model, predicted probability 60-79%): 72.8%
Proportion of patients achieving goal (LDL [3]; Simvastatin 80 mg model, predicted probability 80-100%): 70.8%
Chance of success (reaching goal) of any dose choice (LDL [3]; all choices except 80 mg daily): ≤ 60%
Chance of success (reaching goal) of any dose choice (LDL [3]; all doses): ≤ 62%
